Data as given in ChEMBL document CHEMBL5385913, “First-in-Class Dual EZH2-HSP90 Inhibitor Eliciting Striking Antiglioblastoma Activity In Vitro and In Vivo” (J Med Chem, 2024).
The source made the active and inactive calls. The calls are words filed in the database; no cut-off is given here.

Experiments:
[1] = Effect on processing DNA double-strand break in TMZ-resistant patient-derived human GBM cells assessed as fold decrease in BLM gene expression at 2 uM (reference value: 3.55); assay type: functional
GBM [2] = test: Effect on homologous recombination in TMZ-resistant patient-derived human GBM cells assessed as fold decrease in MSH5 gene expression at 2 uM (reference value: 1.52); assay type: functional
GBM [3] = test: Upregulation of CTNNB1 gene expression in TMZ-resistant patient-derived human GBM cells by KEGG analysis; assay type: functional, cell-based
GBM [4] = test: Effect on homologous recombination in TMZ-resistant patient-derived human GBM cells assessed as fold decrease in BLM gene expression at 2 uM (reference value: 3.55); assay type: functional
GBM [5] = test: Induction of ROS production in TMZ-resistant patient-derived human GBM cells assessed as decrease in SOD1 level upto 10 uM measured after 48 hrs by Western blot analysis; assay type: functional, cell-based
[6] = Downregulation of CENPP level in TMZ-resistant patient-derived human GBM cells assessed as fold change at 2 uM by GlioVis analysis (reference value: 2.18); assay type: functional
[7] = Downregulation of OIP5 level in TMZ-resistant patient-derived human GBM cells assessed as fold change at 2 uM by GlioVis analysis (reference value: 2.31); assay type: functional
GBM [8] = test: Downregulation of M phase-related gene expression in TMZ-resistant patient-derived human GBM cells; assay type: functional, cell-based
[9] = Downregulation of CENPA level in TMZ-resistant patient-derived human GBM cells assessed as fold change at 2 uM by GlioVis analysis (reference value: 3.64); assay type: functional
[10] = Downregulation of CENPU level in TMZ-resistant patient-derived human GBM cells assessed as fold change at 2 uM by GlioVis analysis (reference value: 3.88); assay type: functional
[11] = Downregulation of HELLS level in TMZ-resistant patient-derived human GBM cells assessed as fold change at 2 uM by GlioVis analysis (reference value: 4.19); assay type: functional
[12] = Downregulation of CENPM level in TMZ-resistant patient-derived human GBM cells assessed as fold change at 2 uM by GlioVis analysis (reference value: 2.23); assay type: functional
GBM [13] = test: Upregulation of SERPINE1 gene expression in TMZ-resistant patient-derived human GBM cells by KEGG analysis; assay type: functional, cell-based
GBM [14] = test: Downregulation of spindle-related gene expression in TMZ-resistant patient-derived human GBM cells; assay type: functional, cell-based
GBM [15] = test: Downregulation of SRSF7 gene expression in TMZ-resistant patient-derived human GBM cells by KEGG analysis; assay type: functional, cell-based
GBM [16] = test: Upregulation of ACTB gene expression in TMZ-resistant patient-derived human GBM cells by KEGG analysis; assay type: functional, cell-based
GBM [17] = test: Induction of ROS production in TMZ-resistant patient-derived human GBM cells measured after 48 hrs by DHR staining based flow cytometry; assay type: functional, cell-based
GBM [18] = test: Upregulation of EHD1 gene expression in TMZ-resistant patient-derived human GBM cells by KEGG analysis; assay type: functional, cell-based
GBM [19] = test: Upregulation of HSPA8 gene expression in TMZ-resistant patient-derived human GBM cells by KEGG analysis; assay type: functional, cell-based
[20] = Downregulation of MIS18BP1 level in TMZ-resistant patient-derived human GBM cells assessed as fold change at 2 uM by GlioVis analysis (reference value: 3.87); assay type: functional
[21] = biological target: Histone-lysine N-methyltransferase EZH2 (Homo sapiens) (UniProt Q15910); test: Inhibition of EZH2-mediated H3K27 trimethylation in TMZ-resistant patient-derived human GBM cells upto 10 uM measured after 48 hrs by Western blot analysis; assay type: cell-based
Sequence of Histone-lysine N-methyltransferase EZH2 (Homo sapiens) (Q15910 whole entry, looked up): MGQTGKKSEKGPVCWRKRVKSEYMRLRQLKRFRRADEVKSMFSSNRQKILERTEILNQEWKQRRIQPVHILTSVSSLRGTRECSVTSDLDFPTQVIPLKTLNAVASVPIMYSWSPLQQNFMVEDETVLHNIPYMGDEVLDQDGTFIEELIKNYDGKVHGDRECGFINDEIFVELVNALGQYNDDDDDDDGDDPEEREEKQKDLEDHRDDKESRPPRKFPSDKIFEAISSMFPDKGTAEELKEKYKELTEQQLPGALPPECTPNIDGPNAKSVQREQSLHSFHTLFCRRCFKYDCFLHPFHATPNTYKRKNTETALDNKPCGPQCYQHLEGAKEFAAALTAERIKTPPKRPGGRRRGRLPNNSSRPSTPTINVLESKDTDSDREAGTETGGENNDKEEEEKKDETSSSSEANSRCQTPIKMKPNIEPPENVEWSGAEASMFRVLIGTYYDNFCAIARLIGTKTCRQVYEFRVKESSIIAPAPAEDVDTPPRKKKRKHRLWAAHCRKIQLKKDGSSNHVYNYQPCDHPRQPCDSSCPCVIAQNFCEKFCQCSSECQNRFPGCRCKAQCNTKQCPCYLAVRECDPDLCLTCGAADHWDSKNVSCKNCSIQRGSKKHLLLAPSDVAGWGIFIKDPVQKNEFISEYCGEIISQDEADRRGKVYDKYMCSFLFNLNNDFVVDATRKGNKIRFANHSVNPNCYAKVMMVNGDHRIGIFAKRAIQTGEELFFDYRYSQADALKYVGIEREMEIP

GBM [22] = test: Downregulation of MCM7 gene expression in TMZ-resistant patient-derived human GBM cells by KEGG analysis; assay type: functional, cell-based
GBM [23] = test: Downregulation of cyclin B level in TMZ-resistant patient-derived human GBM cells upto 5 uM incubated for 48 to 72 hrs by Western blot analysis; assay type: functional, cell-based; conditions: time 48-72 hrs
GBM [24] = test: Effect on homologous recombination in TMZ-resistant patient-derived human GBM cells assessed as fold decrease in FANCM gene expression at 2 uM (reference value: 2.59); assay type: functional
GBM [25] = test: Induction of ROS production in patient-derived human GBM cells assessed as decrease in SOD1 level upto 10 uM measured after 48 hrs by Western blot analysis; assay type: functional, cell-based
GBM [26] = test: Induction of ROS production in TMZ-resistant patient-derived human GBM cells assessed as increase in cleaved caspase-3 level upto 5 uM measured for 48 hrs by Western blot analysis; assay type: functional, cell-based
GBM [27] = test: Inhibition of cell proliferation in TMZ-resistant patient-derived human GBM cells at 2 uM incubated for 48 hrs; assay type: functional, cell-based
GBM [28] = test: Downregulation of YWHAG gene expression in TMZ-resistant patient-derived human GBM cells by KEGG analysis; assay type: functional, cell-based
[29] = Downregulation of HJURP level in TMZ-resistant patient-derived human GBM cells assessed as fold change at 2 uM by GlioVis analysis (reference value: 4.74); assay type: functional
GBM [30] = test: Downregulation of HNRNPA3 gene expression in TMZ-resistant patient-derived human GBM cells by KEGG analysis; assay type: functional, cell-based
GBM [31] = test: Downregulation of RPL35 gene expression in TMZ-resistant patient-derived human GBM cells by KEGG analysis; assay type: functional, cell-based
GBM [32] = test: Induction of cell cycle arrest in TMZ-resistant patient-derived human GBM cells at 1 uM incubated for 24 to 72 hrs by PI staining based flow cytometry; assay type: functional; conditions: time 24-72 hrs
GBM [33] = test: Downregulation of PCBP1 gene expression in TMZ-resistant patient-derived human GBM cells by KEGG analysis; assay type: functional, cell-based
[34] = Downregulation of CENPI level in TMZ-resistant patient-derived human GBM cells assessed as fold change at 2 uM by GlioVis analysis (reference value: 3.46); assay type: functional
GBM [35] = test: Upregulation of HSPH gene expression in TMZ-resistant patient-derived human GBM cells by KEGG analysis; assay type: functional, cell-based
GBM [36] = test: Effect on homologous recombination in TMZ-resistant patient-derived human GBM cells assessed as fold decrease in EME1 gene expression at 2 uM (reference value: 2.94); assay type: functional

## CCN(c1cc(-c2cccc(N(C)C(=O)c3cc(C(C)C)c(O)cc3O)c2)cc(C(=O)NCc2c(C)cc(C)[nH]c2=O)c1C)C1CCOCC1
[1]
  fold change (FC): 0.72
GBM [2]
  fold change (FC): 0.44
GBM [3]
  Activity: Active
GBM [4]
  fold change (FC): 0.72
GBM [5]
  Activity: Active
[6]
  fold change (FC): 1.27
[7]
  fold change (FC): 0.66
GBM [8]
  Activity: Active
[9]
  fold change (FC): 0.81
[10]
  fold change (FC): 1.46
[11]
  fold change (FC): 2.37
[12]
  fold change (FC): 0.48
GBM [13]
  Activity: Active
GBM [14]
  Activity: Active
GBM [15]
  Activity: Active
GBM [16]
  Activity: Active
GBM [17]
  Activity: Active
GBM [18]
  Activity: Active
GBM [19]
  Activity: Active
[20]
  fold change (FC): 2.43
[21]
  inhibition: Active
GBM [22]
  Activity: Active
GBM [23]
  Activity: Active
GBM [24]
  fold change (FC): 1.77
GBM [25]
  Activity: Active
GBM [26]
  Activity: Active
GBM [27]
  inhibition: Active
GBM [28]
  Activity: Active
[29]
  fold change (FC): 1.38
GBM [30]
  Activity: Active
GBM [31]
  Activity: Active
GBM [32]
  Activity: Active
GBM [33]
  Activity: Active
[34]
  fold change (FC): 1.14
GBM [35]
  Activity: Active
GBM [36]
  fold change (FC): 0.75
